Experimental data taken from patent US20090221573A1, “Use of Activators of Soluble Guanylate Cyclase for Promoting Wound Healing” (Bayer HealthCare AG, priority 2005, published 2009).
Read-outs that look alike come from different tables or passages of the source.

Tested on: smooth muscle cells of the human coronary artery
Assay: Inhibition of the horizontal migration of smooth muscle cells (wounded monolayer)
Type: cell-based
Conditions: read-out: Inhibition of the horizontal migration of smooth muscle cells of the human coronary artery, IC50
Protocol: Smooth muscle cells of the human coronary artery are seeded in a 6-well plate (1.5×10^5 cells/well) (Clonetics) and cultured in SmGM2 medium (Clonetics) for 48 h. Before the plates are used, the wells are coated with vitronectin (50 ng/cm^2; Gibco BRL). Half of the confluent cell monolayer is removed with the aid of a cell scraper (wounding). In the cell-free region, the vitronectin coating is at least 50% retained in this case. For the test, unless mentioned otherwise, the culture medium is replaced by MCDB-131/0.2% BSA (Gibco/BRL) medium. The test substances are added in various concentrations, and the migration distance in the cell-free region is followed with the aid of a microscope over 24 h and 48 h. Each measurement point represents the average of four measured regions. PDGF, as potent chemotactic factor for SMC, is used as positive control (1 nM, 10 nM, R&D systems). The RGD tripeptide (Bachem) is employed to inhibit the integrin-induced migration. To determine the antagonistic activity of the test substances, the cells are stimulated in the presence of the substance with 1 nM or 10 nM PDGF, and the migration distances are determined in relation to the PDGF-induced migration distances.

Row | Structure (SMILES) | IC50 (48 h) | IC50 (incubation time 48 h)
1 | O=C(O)CCCCN(CCc1ccccc1OCc1ccc(CCc2ccccc2)cc1)Cc1ccc(C(=O)O)cc1 [Compound I] | 0.005 µM | 
2 | COC(=O)N(C)c1c(N)nc(-c2nn(Cc3ccccc3F)c3ncccc23)nc1N [IV] |  | 0.01 µM
3 | COC(=O)Nc1c(N)nc(-c2nn(Cc3ccccc3F)c3ncccc23)nc1N [IVa] | 0.03 µM | 
